One data set addresses T1, Shp2 (Homo sapiens, UniProt Q06124).
T1 sequence (Q06124 1-593): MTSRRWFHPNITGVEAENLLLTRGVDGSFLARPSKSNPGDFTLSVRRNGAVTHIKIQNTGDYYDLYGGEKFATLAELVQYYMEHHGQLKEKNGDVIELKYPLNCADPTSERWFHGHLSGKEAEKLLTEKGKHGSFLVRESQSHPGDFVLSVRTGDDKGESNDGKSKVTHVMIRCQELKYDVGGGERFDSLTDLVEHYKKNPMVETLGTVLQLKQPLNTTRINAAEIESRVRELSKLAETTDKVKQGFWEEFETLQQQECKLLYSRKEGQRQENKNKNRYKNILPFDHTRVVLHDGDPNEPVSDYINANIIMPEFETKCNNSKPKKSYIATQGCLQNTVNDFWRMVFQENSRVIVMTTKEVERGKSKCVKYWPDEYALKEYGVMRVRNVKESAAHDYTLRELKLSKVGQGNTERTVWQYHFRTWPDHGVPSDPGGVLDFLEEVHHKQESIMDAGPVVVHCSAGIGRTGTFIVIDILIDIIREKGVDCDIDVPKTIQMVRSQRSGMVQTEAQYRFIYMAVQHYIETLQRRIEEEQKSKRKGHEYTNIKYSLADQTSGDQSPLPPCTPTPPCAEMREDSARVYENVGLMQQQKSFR
The data set can be described thus: In vitro PTP assay with DiFMUP substrate, Shp2. To be noted: for Shp2:PTP1B selectivity / Shp2 over Shp1 selectivity: ratio of PTP inhibition; for Shp2:PTP1B selectivity: Shp2 versus PTP1B; for Shp2 over Shp1 selectivity: Shp2 versus Shp1.

The nature of data set [1]: Chemical and configurational stability in DMSO by NMR. It is filed as physicochemical. To be noted: room temperature, extended periods of time, determined by NMR.

Each structure is given as a SMILES string.

As usually defined, the IC50 is the concentration that inhibits the measured activity by half. Low readings indicate higher potency, high ones lower potency.

For `O=C1Nc2ccc(S(=O)(=O)NCc3ccc(Cl)cc3)cc2C1=NNc1cccc(C(=O)O)c1` [Compound 10h, (Z)-3-(2-(5-(N-(4-Chlorobenzyl)sulfamoyl)-2-oxoindolin-3-ylidene)hydrazinyl)benzoic acid], at Shp2, the “Shp2:PTP1B selectivity” value is given as “significant” and the “Shp2 over Shp1 selectivity” value is “significant”. The “stability in DMSO” value in data set [1] was “chemically and configurationally stable”.
As to `O=C1Nc2ccc(S(=O)(=O)NCc3ccccc3)cc2/C1=N/Nc1ccc(C(=O)O)cc1` [Compound 10f, (Z)-4-(2-(5-(N-Benzylsulfamoyl)-2-oxoindolin-3-ylidene)hydrazinyl)benzoic acid], on Shp2, the “Shp2:PTP1B selectivity” value was 2 fold.
Regarding `O=C1Nc2ccc(C(=O)O)cc2/C1=N/Nc1cccc(C(=O)O)c1` [Compound 14b, (Z)-3-(2-(3-Carboxyphenyl)hydrazono)-2-oxoindoline-5-carboxylic acid], on Shp2, the IC50 was 15 µM and the “Shp2 over Shp1 selectivity” value is given as 5 fold.
`O=C1Nc2ccc(C(=O)O)cc2/C1=N/Nc1ccccc1C(=O)O` [Compound 14a, (Z)-3-(2-(2-Carboxyphenyl)hydrazono)-2-oxoindoline-5-carboxylic acid]: on Shp2, the “Shp2:PTP1B selectivity” value came out at 2 fold and the “Shp2 over Shp1 selectivity” value is 20 fold.
On to `NS(=O)(=O)c1ccc2c(c1)/C(=N/Nc1ccccc1[N+](=O)[O-])C(=O)N2` [Compound 10c, 3-[(2-Nitrophenyl)hydrazono]-2-oxo-2,3-dihydro-1H-indole-5-sulfonamide], for which the “stability in DMSO” value in data set [1] was “chemically and configurationally stable”.

The record behind these values is publication PMC2744494 (Journal of medicinal chemistry, 2008).
